{"source": "patent US20200345725A1", "about": "“Methods and Compositions for Treating Cancer” (Omeros Corporation, priority 2019, published 2020)", "type_in_all_cases": "cell-based", "key": {"[1]": {"target": "T1, WT GPR174 (Homo sapiens, UniProt Q9BXC1)", "T1 construct": "expressed in transfected cells; host or cells: HEK293", "T1 sequence (Q9BXC1 whole entry)": "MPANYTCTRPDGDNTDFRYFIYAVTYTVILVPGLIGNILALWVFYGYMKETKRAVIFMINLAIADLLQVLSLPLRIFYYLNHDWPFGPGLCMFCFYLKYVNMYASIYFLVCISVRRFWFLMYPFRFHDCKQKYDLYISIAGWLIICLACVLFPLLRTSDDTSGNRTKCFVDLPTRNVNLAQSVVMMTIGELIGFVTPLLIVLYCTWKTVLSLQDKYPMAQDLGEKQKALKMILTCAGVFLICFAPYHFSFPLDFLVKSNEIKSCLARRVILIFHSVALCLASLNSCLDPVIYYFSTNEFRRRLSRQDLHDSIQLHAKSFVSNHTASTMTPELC", "assay": "Inhibition of PS-induced GPR174 Gs signaling (GloSensor), HEK293 stably transfected with WT GPR174", "protocol": "The signaling experiment was conducted as described for FIG. 45, but instead of transient transfection a pool of HEK293 cells stably transfected with either WT GPR174 (for compound 10, as shown in FIG. 47A) or GPR174-v38 for the rest of the tested compounds, as shown in FIGS. 47B-47F)) and GloSensor cAMP biosensor was used. A dilution series of each of the GPR174 inhibitory compounds 10 (Group I), 6 (Group I), 11 (Group I), 20 (Group II), 23 (Group IV), and 30 (Group IV) were prepared in DMSO. After the plates were pre-read in a luminometer, 1 μL of the compound dilution was added per well (with control wells receiving 1 μL of DMSO) followed by addition of PS liposomes to the final concentration of 1 μM. Plates were read in a luminometer after 15 minutes of incubation. The ratio of luminescence after PS addition to the pre-read luminescence value was used as a measure of receptor-mediated signaling."}, "[2]": {"test_system": "mouse splenocytes", "assay": "IL-2 in stimulated splenocyte cultures from WT or GPR174 KO mice", "settings": "48 hours; 10 μM; vs vehicle", "protocol": "GPR174 knockout (KO) mice (referred to also as “FKSG79”) were generated as described in Gragerov A. et al., PNAS vol 104(36): 14406-14411, 2007. Splenocyte cultures were generated from four GPR174 KO mice and four wild-type (WT) mice. Single-cell suspension of individual mouse spleens were pelleted by centrifugation, resuspended in RBC lysis buffer to remove erythrocytes, spun down again and resuspended in T cell medium (RPMI-1640, 10% FBS, 6 mM L-Glutamine, 12.5 mM HEPES, 50 μM 2-mercaptoethanol, Pen/Strep). Thus, prepared splenocytes were plated into 96-well plates at a density of 3×10^6 cells/mL, 250 μL/well and stimulated with 100 ng/mL of anti-CD3 antibodies and 100 ng/mL of anti-CD28. Cells were treated with either vehicle (0.1% DMSO) or GPR174 inhibitory Compound 10 (10 μM). 48 hours later, cell supernatants were analyzed for cytokine levels using LEGENDplex mouse Th1 cytokine detection kit (BioLegend). Four GPR174 KO and four WT spleens were analyzed, each in triplicate."}, "[3]": {"test_system": "co-cultured mouse C57BL/6+DBA1 splenocytes", "assay": "Cytokines in C57BL/6 + DBA1 splenocyte co-culture", "settings": "30 μM; day 6 after mixing", "protocol": "In order to stimulate T cells in mice, splenocytes obtained from two different mouse strains, C57BL/6 and DBA1, were mixed in culture.\nThe effect of compound 10 on production of cytokines (IFN-γ, IL-5, TNF-α, IL-2, IL-6, IL-4, IL-10, IL-9, IL17A, IL17F, IL-21, IL-22 and IL-13) in mouse splenocyte co-cultures was determined as follows. Splenocytes obtained from two different mouse strains, C57BL/6 and DBA1, were mixed in culture in the presence or absence of 30 μM compound 10. Cytokine production of IFN-γ, IL-5, TNF-α, IL-2, IL-6, IL-4, IL-10, IL-9, IL-17A, IL-17F, IL-21, IL-22 and IL-13 was measured in the co-culture supernatant at day 4 and day 6 after mixing. Cytokine levels were determined by LEGENDplex™ bead-based immunoassays from BioLegend (San Diego, Calif.) according to the manufacturer's instructions."}, "[4]": {"test_system": "human T cells", "assay": "PD-L1, TIGIT and AREG expression on human T cells in PBMC", "settings": "1.25 or 5 μM; one day post-stimulation", "protocol": "PBMC cells from a single donor mixed with additional irradiated antigen-presenting cells (APC) and anti-CD3 antibodies (UCHT1) were incubated in the presence of various concentrations of GPR174 inhibitory compound 10 (1.25 to 5 μM) or equivalent concentrations of vehicle (DMSO). The cells were analyzed by flow cytometry for expression of CD4, CD8, PD-L1, TIGIT and AREG."}, "[5]": {"test_system": "purified human T cells", "assay": "Cytokines of purified human T cells activated with K562 cells, with or without PS liposomes, tumor exosomes, GPR174 inhibitor", "settings": "for IFN-γ FC (fold change), Compound 10 vs Vehicle / IL-2 FC (fold change), Compound 10 vs Vehicle / TNF FC (fold change), Compound 10 vs Vehicle: stimulated human T cells, compound 10, 0.5 μM", "protocol": "Purified human T cells (Astarte Biologies, Inc) were activated in the presence of K562 cells (as artificial antigen presenting cells) presenting anti-CD3 and CD80.Fc via Fc-receptor binding, in 96-well U-bottom plates containing X-vivo-15 media in the following conditions:\nAnti-CD3 (clone UCHT1, 0.5 μg/mL)\nCD80.Fc fusion protein (R&D Systems, 2 μg/mL)\nExosomes from human breast cancer tumor cell line MDA-MB-231 (12 μg/mL) (EXOP-105A-1 from System Biosciences, LLC)\nGPR174 inhibitor (compound 10, 0.5 μM or 3 μM)\nCells were cultured for 24 hours and supernatants were evaluated for cytokine concentrations (Legendplex, Biolegend)."}, "[6]": {"target": "T2, GPR174 (Mus musculus, UniProt Q3U507)", "T2 construct": "endogenous in cells; host or cells: purified mouse T cells from WT (and GPR174-KO) mice", "T2 sequence (Q3U507 whole entry)": "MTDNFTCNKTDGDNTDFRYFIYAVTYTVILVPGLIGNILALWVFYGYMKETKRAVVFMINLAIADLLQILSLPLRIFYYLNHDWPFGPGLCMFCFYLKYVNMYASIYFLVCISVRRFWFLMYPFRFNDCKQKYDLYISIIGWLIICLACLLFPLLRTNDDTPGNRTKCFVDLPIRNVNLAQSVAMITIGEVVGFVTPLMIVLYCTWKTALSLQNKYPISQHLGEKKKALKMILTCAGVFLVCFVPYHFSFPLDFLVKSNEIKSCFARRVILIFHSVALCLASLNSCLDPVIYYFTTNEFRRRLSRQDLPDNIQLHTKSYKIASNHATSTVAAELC", "assay": "IL-2 production from purified GPR174 WT and GPR174-KO mouse T cells with PS liposomes (FIG. 67)", "settings": "GPR174 WT mouse T cells, in presence of PS liposomes, FIG. 67"}, "[7]": {"test_system": "GPR174", "assay": "IL-2 production from purified GPR174 WT and GPR174-KO mouse T cells with PS liposomes (FIG. 67)"}, "[8]": {"test_system": "human PBMC", "assay": "IL-2 in supernatants of human PBMC stimulated with anti-CD3 and anti-CD28, ELISA", "settings": "human PBMC donor 8, 24 hours post-stimulation; compound 10 1 μM, ZM-241385 0.1 μM, APCP 10 μM; FIG. 71", "protocol": "Human PBMCs, obtained from a human volunteer donor (donor 8), were dispensed in X-vivo15 media (Lonza) supplemented with Glutamax, penicillin and streptomycin, at density of 1×10^6 cells/well in a 96-well flat-bottom plate and were cultured in quadruplicate for 3 hours in the presence of:\nGPR174 inhibitory compound 10 (1 μM);\nCD73 inhibitory compound, adenosine 5′-(a,p-methylene)diphosphate sodium salt (APCP, Tocris, 10 μM);\nCombinations of the above agents;\nAfter which 1 μg/mL anti-CD3 antibody (UCHT1) and 0.1 μg/mL anti-CD28 antibody (CD28.2) were added to activate T cells. Supernatants from these cells were collected at 24 hours post-stimulation and the levels of IL-2 were determined by ELISA."}, "[9]": {"settings": "in the presence of Exosomes (human breast cancer tumor-derived)"}, "[10]": {"settings": "in the presence of PS Liposomes"}}, "data": [{"smiles": "CC1CCN(c2cc(N3CCN(S(=O)(=O)c4ccccc4)CC3)c([N+](=O)[O-])cc2F)CC1", "note": "[compound 10]", "values": [{"measurement": "PS-mediated GPR174 Gs signaling (FIG. 47A)", "setting": "[1]; PS liposomes 1 μM", "result": "inhibited"}, {"measurement": "IC50", "setting": "[1]; PS liposomes 1 μM, WT GPR174, read-out: apparent IC50, inhibition of PS-induced GPR174 Gs signaling", "result": "20 to 40", "unit": "nM"}, {"measurement": "inhibition of the PS signaling through the GPR174 receptor", "setting": "[1]; at concentrations of 1-2 μM", "result": "almost complete inhibition"}, {"measurement": "IL-2 in culture supernatants, GPR174 KO splenocytes", "setting": "[2]", "result": "no significant difference"}, {"measurement": "IL-2 in culture supernatants, WT splenocytes", "setting": "[2]", "result": "increased"}, {"measurement": "quantities of cytokines produced during splenocyte allogeneic stimulation", "setting": "[3]", "result": "strong alteration"}, {"measurement": "AREG expression in CD4+ T cells", "setting": "[4]", "result": "reduced"}, {"measurement": "PD-L1 expression in CD4+ T cells", "setting": "[4]", "result": "reduced"}, {"measurement": "TIGIT expression in CD8+ T cells", "setting": "[4]", "result": "reduced"}, {"measurement": "IL-2 production, fold change by compound 10 in the absence of PS liposomes (FIG. 65)", "setting": "[5]; compound 10 3 μM", "result": 1.3, "unit": "fold"}, {"measurement": "IL-2 production, fold change by compound 10 in the presence of PS liposomes (FIG. 65)", "setting": "[5]; compound 10 3 μM, PS liposomes 1 μM", "result": 2.4, "unit": "fold"}, {"measurement": "IFN-γ FC (fold change), Compound 10 vs Vehicle", "setting": "[5]; [9]", "result": 1.4}, {"measurement": "IL-2 FC (fold change), Compound 10 vs Vehicle", "setting": "[5]; [9]", "result": 1.7}, {"measurement": "TNF FC (fold change), Compound 10 vs Vehicle", "setting": "[5]; [9]", "result": 1.7}, {"measurement": "IFN-γ FC (fold change), Compound 10 vs Vehicle", "setting": "[5]; in the presence of Media", "result": 1.1}, {"measurement": "IL-2 FC (fold change), Compound 10 vs Vehicle", "setting": "[5]; in the presence of Media", "result": 1.2}, {"measurement": "TNF FC (fold change), Compound 10 vs Vehicle", "setting": "[5]; in the presence of Media", "result": 1.4}, {"measurement": "IFN-γ FC (fold change), Compound 10 vs Vehicle", "setting": "[5]; [10]", "result": 1.3}, {"measurement": "IL-2 FC (fold change), Compound 10 vs Vehicle", "setting": "[5]; [10]", "result": 1.4}, {"measurement": "TNF FC (fold change), Compound 10 vs Vehicle", "setting": "[5]; [10]", "result": 1.7}, {"measurement": "reversal of PS liposome-mediated suppression of IL-2, fold change", "setting": "[6]", "result": 3.5, "unit": "fold"}, {"measurement": "effect on IL-2 in presence of PS liposomes, fold change", "setting": "[7]; GPR174-KO mouse T cells, FIG. 67", "result": 0.9, "unit": "fold"}, {"measurement": "effect on T cell response in the absence of PS or GPR174", "setting": "[7]; purified human and mouse T cells", "result": "negligible effect"}, {"measurement": "increase of IL-2 levels", "setting": "[8]", "result": 1.4, "unit": "fold"}]}]}
